The target of the data set is T1, CYP2C8 (Homo sapiens, UniProt P10632).
T1 sequence (P10632 1-490): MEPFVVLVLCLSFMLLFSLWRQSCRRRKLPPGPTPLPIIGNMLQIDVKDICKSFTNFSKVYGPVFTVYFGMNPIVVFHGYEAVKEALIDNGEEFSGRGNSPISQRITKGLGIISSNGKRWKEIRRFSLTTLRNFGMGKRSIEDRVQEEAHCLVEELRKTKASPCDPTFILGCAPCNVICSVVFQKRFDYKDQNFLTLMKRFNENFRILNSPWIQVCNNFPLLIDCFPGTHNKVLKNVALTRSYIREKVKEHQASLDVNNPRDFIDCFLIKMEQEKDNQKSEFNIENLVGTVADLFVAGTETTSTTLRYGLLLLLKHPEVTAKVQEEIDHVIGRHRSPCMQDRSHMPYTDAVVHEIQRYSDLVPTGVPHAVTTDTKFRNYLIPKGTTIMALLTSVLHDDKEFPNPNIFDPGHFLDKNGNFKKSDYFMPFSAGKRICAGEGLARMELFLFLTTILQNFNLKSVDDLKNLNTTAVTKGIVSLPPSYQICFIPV
The data set can be described thus: CYP2C8-catalyzed amodiaquine N-deethylation in human liver microsomes (IC50 and time-dependent inhibition). The class given is in vitro ADME. The arrangement: from tissue; host or cells: ultrapooled human liver microsomes. The procedure:
The inhibitory potential (IC50 values) of EAM-2201 on CYP1A2, CYP2A6, CYP2C8, CYP2C9, CYP2C19, CYP2D6 and CYP3A4 were evaluated using ultrapooled human liver microsomes and a cocktail of seven CYP substrates followed by LC-tandem mass spectrometry (LC-MS/MS) as previously described. Each incubation mixture was prepared in a total volume of 100 µL as follows: pooled human liver microsomes (5.2 pmol CYP), 1.0 mM NADPH, 10 mM magnesium chloride, 50 mM potassium phosphate buffer (pH 7.4), various concentrations of EAM-2201 in DMSO (final concentrations of 0.1–50 µM, 0.5% DMSO) and a cocktail of seven CYP probe substrates in 50% acetonitrile (0.5% acetonitrile), including 50 µM phenacetin, 2.5 µM coumarin, 2.0 µM amodiaquine, 10 µM diclofenac, 100 µM [S]-mephenytoin, 5 µM bufuralol and 2.5 µM midazolam in 50% acetonitrile. After a 3-min preincubation at 37 °C, the reactions were initiated by adding NADPH and incubation proceeded for 15 min at 37 °C in a shaking water bath. The reactions were stopped by adding 100 µL of ice-cold methanol containing internal standards (^13C2,^15N-acetaminophen for acetaminophen and N-desethylamodiaquine; d9-1′-hydroxybufuralol for 4′-hydroxydiclofenac, 7-hydroxycoumarin, 4′-hydroxymephenytoin, 1′-hydroxybufuralol and 1′-hydroxy-midazolam). The incubation mixtures were centrifuged at 13,000× g for 4 min at 4 °C and 50 µL of each supernatant was diluted in 50 µL of water. Aliquots (5 µL) of the diluted supernatants were analyzed using LC-MS/MS. All assays were performed in triplicate and the mean values were used in calculations. […] Each reaction was initiated by adding the seven-CYP probe substrate cocktail described above.
The time-dependent inhibitory effects of EAM-2201 on CYP2C8, CYP2C9, CYP2C19 and CYP3A4 activities in ultrapooled human liver microsomes were evaluated using time- and concentration-dependent inhibition assays. Ultrapooled human liver microsomes (26.0 pmol CYP) were pre-incubated with various concentrations of EAM-2201 in DMSO (0.5% DMSO) in 50 mM potassium phosphate buffer (pH 7.4) in the presence of NADPH for predetermined time periods: 5–15 min for CYP2C8 activity, 5–20 min for CYP2C9 activity and 15–40 min for CYP2C19 and CYP3A4 activities. […] Aliquots (5 µL) of the diluted supernatants were analyzed using LC-MS/MS.
The metabolites formed from CYP substrates were simultaneously quantified using our previously described LC-MS/MS method. […]
In general terms: Liver microsomes are a subcellular fraction often used to study metabolism.

In the case of `CCc1ccc(C(=O)c2cn(CCCCCF)c3ccccc23)c2ccccc12` [EAM-2201, (4-ethyl-1-naphthalenyl)[1-(5-fluoropentyl)-1H-indol-3-yl]-methanone], the IC50 worked out at 3 µM. In addition, the “inactivation efficiency (kinact/Ki), CYP2C8” value (human liver microsomes) is 1953 M⁻¹ s⁻¹. The kinact (human, ultrapooled human liver microsomes, pH 7.4, probe amodiaquine (2 µM), N-deethylation, read-out: kinact, time-dependent inhibition of CYP2C8 amodiaquine N-deethylase (converted)) was 0.00105 s⁻¹. Further, where the note is “up to 50 µM, without 30-min preincubation, human liver microsomes”, the “inhibition of CYP2C8-catalyzed amodiaquine N-deethylation” value is given as “negligibly inhibited”.

The term IC50 denotes the concentration needed to halve the response being measured. What is called kinact is the rate constant of inactivation at saturating inhibitor.

(Values after paper PMC6017357, “In Vitro Inhibitory Effects of Synthetic Cannabinoid EAM-2201 on Cytochrome P450 and UDP-Glucuronosyltransferase Enzyme Activities in Human Liver Microsomes” (Molecules : A Journal of Synthetic Chemistry and Natural …, 2018).)
